Results reported in publication PMC9571063 (Molecules, 2022).

Experiments:
[1] = molecular target: T1, MKK7 (Homo sapiens, UniProt O14733); experiment: KINOMEscan; assay type: binding; conditions: read-out: Percent Control
T1 construct: purchased Eurofins DiscoverX KINOMEscan (scanMAX 468)

[2] = molecular target: T2, EPHA8 (Homo sapiens, UniProt P29322); experiment: KINOMEscan; assay type: binding; conditions: read-out: Percent Control
T2 construct: purchased Eurofins DiscoverX KINOMEscan (scanMAX 468)
T2 sequence (P29322 28-1005): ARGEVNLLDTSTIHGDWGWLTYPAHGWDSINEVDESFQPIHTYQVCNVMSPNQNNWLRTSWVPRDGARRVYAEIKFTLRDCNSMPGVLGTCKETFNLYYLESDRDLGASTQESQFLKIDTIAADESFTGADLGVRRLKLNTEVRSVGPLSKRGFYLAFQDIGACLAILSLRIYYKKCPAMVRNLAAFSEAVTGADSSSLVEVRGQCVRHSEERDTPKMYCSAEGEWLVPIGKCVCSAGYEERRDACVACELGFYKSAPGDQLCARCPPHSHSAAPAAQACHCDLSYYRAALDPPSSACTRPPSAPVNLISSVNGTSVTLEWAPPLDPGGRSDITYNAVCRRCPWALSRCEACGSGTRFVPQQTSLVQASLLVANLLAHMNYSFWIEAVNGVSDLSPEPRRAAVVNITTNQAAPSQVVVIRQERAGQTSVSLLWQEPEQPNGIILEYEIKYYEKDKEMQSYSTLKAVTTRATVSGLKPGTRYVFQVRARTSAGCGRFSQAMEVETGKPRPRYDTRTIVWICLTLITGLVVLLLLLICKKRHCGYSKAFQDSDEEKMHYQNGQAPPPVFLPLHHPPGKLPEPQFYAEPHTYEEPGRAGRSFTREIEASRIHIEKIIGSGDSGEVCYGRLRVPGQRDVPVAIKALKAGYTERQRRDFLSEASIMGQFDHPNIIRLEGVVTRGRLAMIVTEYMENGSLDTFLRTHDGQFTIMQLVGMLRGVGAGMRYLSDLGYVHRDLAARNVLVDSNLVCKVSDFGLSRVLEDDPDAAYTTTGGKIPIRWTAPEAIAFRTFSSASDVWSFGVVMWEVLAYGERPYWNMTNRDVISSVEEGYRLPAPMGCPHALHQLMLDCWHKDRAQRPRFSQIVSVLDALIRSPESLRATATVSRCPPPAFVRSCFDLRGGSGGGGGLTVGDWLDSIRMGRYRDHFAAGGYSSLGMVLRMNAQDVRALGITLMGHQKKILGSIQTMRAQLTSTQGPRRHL

[3] = molecular target: T3, SGK2 (Homo sapiens, UniProt Q9HBY8); experiment: KINOMEscan; assay type: binding; conditions: read-out: Percent Control
T3 construct: purchased Eurofins DiscoverX KINOMEscan (scanMAX 468)

[4] = molecular target: T4, NEK6 (Homo sapiens, UniProt Q9HC98); experiment: KINOMEscan; assay type: binding; conditions: read-out: Percent Control
T4 construct: purchased Eurofins DiscoverX KINOMEscan (scanMAX 468)
T4 sequence (Q9HC98 whole entry): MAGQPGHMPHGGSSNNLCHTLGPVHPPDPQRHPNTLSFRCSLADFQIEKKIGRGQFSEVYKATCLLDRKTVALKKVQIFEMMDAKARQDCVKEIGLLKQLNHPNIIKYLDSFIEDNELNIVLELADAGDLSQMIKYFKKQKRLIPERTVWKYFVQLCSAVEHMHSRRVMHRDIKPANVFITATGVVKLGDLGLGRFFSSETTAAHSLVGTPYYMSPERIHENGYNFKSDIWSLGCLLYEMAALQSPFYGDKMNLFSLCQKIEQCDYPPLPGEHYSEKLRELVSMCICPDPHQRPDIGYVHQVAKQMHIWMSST

[5] = molecular target: T5, AKT2 (Homo sapiens, UniProt P31751); experiment: KINOMEscan; assay type: binding; conditions: read-out: Percent Control
T5 construct: purchased Eurofins DiscoverX KINOMEscan (scanMAX 468)

[6] = molecular target: T6, RSK1(Kin.Dom.1-N-terminal) (Homo sapiens, UniProt Q15418); experiment: KINOMEscan; assay type: binding; conditions: read-out: Percent Control
T6 construct: RSK1(Kin.Dom.1-N-terminal); purchased Eurofins DiscoverX KINOMEscan (scanMAX 468)

[7] = molecular target: T7, BRK (Homo sapiens, UniProt Q13882); experiment: KINOMEscan; assay type: binding; conditions: read-out: Percent Control
T7 construct: purchased Eurofins DiscoverX KINOMEscan (scanMAX 468)

[8] = molecular target: T8, LTK (Homo sapiens, UniProt P29376); experiment: KINOMEscan; assay type: binding; conditions: read-out: Percent Control
T8 construct: purchased Eurofins DiscoverX KINOMEscan (scanMAX 468)

[9] = molecular target: T9, PLK2 (Homo sapiens, UniProt Q9NYY3); experiment: KINOMEscan; assay type: binding; conditions: read-out: Percent Control
T9 construct: purchased Eurofins DiscoverX KINOMEscan (scanMAX 468)

[10] = molecular target: T10, LKB1 (Homo sapiens, UniProt Q15831); experiment: KINOMEscan; assay type: binding; conditions: read-out: Percent Control
T10 construct: purchased Eurofins DiscoverX KINOMEscan (scanMAX 468)

[11] = molecular target: T11, PIP5K2C (Homo sapiens, UniProt Q8TBX8); experiment: KINOMEscan; assay type: binding; conditions: read-out: Percent Control
T11 construct: purchased Eurofins DiscoverX KINOMEscan (scanMAX 468)
T11 sequence (Q8TBX8 whole entry): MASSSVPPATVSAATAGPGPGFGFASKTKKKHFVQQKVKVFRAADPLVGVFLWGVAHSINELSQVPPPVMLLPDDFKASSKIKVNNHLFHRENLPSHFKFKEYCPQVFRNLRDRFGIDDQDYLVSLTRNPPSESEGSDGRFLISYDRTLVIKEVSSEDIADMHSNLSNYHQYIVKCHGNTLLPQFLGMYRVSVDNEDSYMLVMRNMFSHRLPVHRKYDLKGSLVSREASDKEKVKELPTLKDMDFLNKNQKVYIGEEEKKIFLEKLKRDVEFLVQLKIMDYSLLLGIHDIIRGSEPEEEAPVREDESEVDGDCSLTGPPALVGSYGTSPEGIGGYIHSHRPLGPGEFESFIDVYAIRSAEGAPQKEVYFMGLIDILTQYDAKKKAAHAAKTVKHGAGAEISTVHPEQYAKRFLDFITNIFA

[12] = molecular target: T12, MRCKA (Homo sapiens, UniProt Q5VT25); experiment: KINOMEscan; assay type: binding; conditions: read-out: Percent Control
T12 construct: purchased Eurofins DiscoverX KINOMEscan (scanMAX 468)

[13] = molecular target: T13, SLK (Homo sapiens, UniProt Q9H2G2); experiment: KINOMEscan; assay type: binding; conditions: read-out: Percent Control
T13 construct: purchased Eurofins DiscoverX KINOMEscan (scanMAX 468)

[14] = molecular target: T14, EPHB3 (Homo sapiens, UniProt P54753); experiment: KINOMEscan; assay type: binding; conditions: read-out: Percent Control
T14 construct: purchased Eurofins DiscoverX KINOMEscan (scanMAX 468)

[15] = molecular target: T15, ARK5 (Homo sapiens, UniProt O60285); experiment: KINOMEscan; assay type: binding; conditions: read-out: Percent Control
T15 construct: purchased Eurofins DiscoverX KINOMEscan (scanMAX 468)

[16] = molecular target: T16, FGFR3(G697C) (Homo sapiens, UniProt P22607, G697C); experiment: KINOMEscan; assay type: binding; conditions: read-out: Percent Control
T16 construct: purchased Eurofins DiscoverX KINOMEscan (scanMAX 468)

[17] = molecular target: T17, PCTK2 (Homo sapiens, UniProt Q00537); experiment: KINOMEscan; assay type: binding; conditions: read-out: Percent Control
T17 construct: purchased Eurofins DiscoverX KINOMEscan (scanMAX 468)
T17 sequence (Q00537 whole entry): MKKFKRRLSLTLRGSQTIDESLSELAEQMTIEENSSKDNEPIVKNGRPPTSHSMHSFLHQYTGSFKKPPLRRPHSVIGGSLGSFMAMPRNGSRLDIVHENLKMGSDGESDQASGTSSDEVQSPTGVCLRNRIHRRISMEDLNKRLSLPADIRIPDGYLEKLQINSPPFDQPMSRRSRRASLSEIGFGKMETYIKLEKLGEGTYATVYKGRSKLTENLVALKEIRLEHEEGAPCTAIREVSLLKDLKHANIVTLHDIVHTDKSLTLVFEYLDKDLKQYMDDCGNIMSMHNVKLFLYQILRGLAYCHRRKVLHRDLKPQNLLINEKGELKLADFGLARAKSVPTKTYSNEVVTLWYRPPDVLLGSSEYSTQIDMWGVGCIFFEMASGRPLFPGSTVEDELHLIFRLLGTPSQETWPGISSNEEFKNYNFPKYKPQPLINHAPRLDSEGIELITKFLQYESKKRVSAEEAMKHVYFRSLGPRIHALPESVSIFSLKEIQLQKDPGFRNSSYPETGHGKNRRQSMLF

[18] = molecular target: T18, ZAK (Homo sapiens, UniProt Q9NYL2); experiment: KINOMEscan; assay type: binding; conditions: read-out: Percent Control
T18 construct: purchased Eurofins (KINOMEscan, DiscoverX)

[19] = molecular target: T19, FLT3(D835Y) (Homo sapiens, UniProt P36888, D835Y); experiment: KINOMEscan; assay type: binding; conditions: read-out: Percent Control
T19 construct: purchased Eurofins DiscoverX KINOMEscan (scanMAX 468)

[20] = molecular target: T20, PIK3C2G (Homo sapiens, UniProt O75747); experiment: KINOMEscan; assay type: binding; conditions: read-out: Percent Control
T20 construct: purchased Eurofins DiscoverX KINOMEscan (scanMAX 468)

[21] = molecular target: T21, AMPK-alpha1 (Homo sapiens, UniProt Q13131); experiment: KINOMEscan; assay type: binding; conditions: read-out: Percent Control
T21 construct: purchased Eurofins DiscoverX KINOMEscan (scanMAX 468)
T21 sequence (Q13131 whole entry): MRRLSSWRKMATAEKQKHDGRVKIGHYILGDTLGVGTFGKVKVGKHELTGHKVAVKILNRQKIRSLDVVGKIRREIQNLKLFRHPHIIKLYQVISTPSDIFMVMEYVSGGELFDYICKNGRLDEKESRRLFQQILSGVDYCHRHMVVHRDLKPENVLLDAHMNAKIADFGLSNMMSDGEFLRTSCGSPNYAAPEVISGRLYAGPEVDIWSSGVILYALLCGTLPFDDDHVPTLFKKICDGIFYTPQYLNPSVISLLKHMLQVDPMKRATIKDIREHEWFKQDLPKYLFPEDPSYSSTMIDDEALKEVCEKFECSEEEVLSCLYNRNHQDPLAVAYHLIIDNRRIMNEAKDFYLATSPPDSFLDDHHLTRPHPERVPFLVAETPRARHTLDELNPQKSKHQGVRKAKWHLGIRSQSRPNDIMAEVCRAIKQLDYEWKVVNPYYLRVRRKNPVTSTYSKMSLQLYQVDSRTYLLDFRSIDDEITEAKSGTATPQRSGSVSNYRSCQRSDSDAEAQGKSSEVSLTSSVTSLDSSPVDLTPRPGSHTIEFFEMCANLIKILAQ

[22] = molecular target: T22, LRRK2 (Homo sapiens, UniProt Q5S007); experiment: KINOMEscan; assay type: binding; conditions: read-out: Percent Control
T22 construct: purchased Eurofins DiscoverX KINOMEscan (scanMAX 468)

[23] = molecular target: T23, EPHA3 (Homo sapiens, UniProt P29320); experiment: KINOMEscan; assay type: binding; conditions: read-out: Percent Control
T23 construct: purchased Eurofins DiscoverX KINOMEscan (scanMAX 468)

[24] = molecular target: T24, PRKCI (Homo sapiens, UniProt P41743); experiment: KINOMEscan; assay type: binding; conditions: read-out: Percent Control
T24 construct: purchased Eurofins DiscoverX KINOMEscan (scanMAX 468)

[25] = molecular target: T25, LIMK2 (Homo sapiens, UniProt P53671); experiment: KINOMEscan; assay type: binding; conditions: read-out: Percent Control
T25 construct: purchased Eurofins DiscoverX KINOMEscan (scanMAX 468)

[26] = molecular target: T26, MLCK (Homo sapiens, UniProt Q32MK0); experiment: KINOMEscan; assay type: binding; conditions: read-out: Percent Control
T26 construct: purchased Eurofins DiscoverX KINOMEscan (scanMAX 468)

[27] = molecular target: T27, ASK2 (Homo sapiens, UniProt O95382); experiment: KINOMEscan; assay type: binding; conditions: read-out: Percent Control
T27 construct: purchased Eurofins DiscoverX KINOMEscan (scanMAX 468)

[28] = molecular target: T28, CDK11 (Homo sapiens, UniProt Q9BWU1); experiment: KINOMEscan; assay type: binding; conditions: read-out: Percent Control
T28 construct: purchased Eurofins DiscoverX KINOMEscan (scanMAX 468)

[29] = molecular target: T29, ADCK4 (Homo sapiens, UniProt Q96D53); experiment: KINOMEscan; assay type: binding; conditions: read-out: Percent Control
T29 construct: purchased Eurofins DiscoverX KINOMEscan (scanMAX 468)

[30] = molecular target: T30, TNIK (Homo sapiens, UniProt Q9UKE5); experiment: KINOMEscan; assay type: binding; conditions: read-out: Percent Control
T30 construct: purchased Eurofins DiscoverX KINOMEscan (scanMAX 468)

[31] = molecular target: T31, CAMK4 (Homo sapiens, UniProt Q16566); experiment: KINOMEscan; assay type: binding; conditions: read-out: Percent Control
T31 construct: purchased Eurofins DiscoverX KINOMEscan (scanMAX 468)

[32] = molecular target: T32, MINK (Homo sapiens, UniProt Q8N4C8); experiment: KINOMEscan; assay type: binding; conditions: read-out: Percent Control
T32 construct: purchased Eurofins DiscoverX KINOMEscan (scanMAX 468)

[33] = test system: MCF7; set-up: method as in ref 14 (a number printed in a supplementary file, which may have a reference list of its own: not looked up in the article's list); conditions: DB18[a], footnote not given; read-out: Cytotoxic studies IC50 MCF7; cited from earlier work
[34] = molecular target: T33, RSK2(Kin.Dom.2-C-terminal) (Homo sapiens, UniProt P51812); experiment: KINOMEscan; assay type: binding; conditions: read-out: Percent Control
T33 construct: RSK2(Kin.Dom.2-C-terminal); purchased Eurofins DiscoverX KINOMEscan (scanMAX 468)
T33 sequence (P51812 398-740 limits assumed): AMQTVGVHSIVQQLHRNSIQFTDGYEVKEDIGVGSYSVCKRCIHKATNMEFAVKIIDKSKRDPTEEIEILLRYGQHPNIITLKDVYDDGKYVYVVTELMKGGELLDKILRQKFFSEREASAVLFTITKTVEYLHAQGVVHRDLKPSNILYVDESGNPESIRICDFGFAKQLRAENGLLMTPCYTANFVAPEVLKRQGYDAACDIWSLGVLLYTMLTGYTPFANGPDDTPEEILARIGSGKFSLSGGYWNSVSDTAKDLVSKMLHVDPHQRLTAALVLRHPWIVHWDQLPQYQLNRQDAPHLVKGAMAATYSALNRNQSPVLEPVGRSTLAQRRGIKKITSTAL

[35] = molecular target: T34, AXL (Homo sapiens, UniProt P30530); experiment: KINOMEscan; assay type: binding; conditions: read-out: Percent Control
T34 construct: purchased Eurofins DiscoverX KINOMEscan (scanMAX 468)

[36] = molecular target: T35, ITK (Homo sapiens, UniProt Q08881); experiment: KINOMEscan; assay type: binding; conditions: read-out: Percent Control
T35 construct: purchased Eurofins DiscoverX KINOMEscan (scanMAX 468)
T35 sequence (Q08881 whole entry): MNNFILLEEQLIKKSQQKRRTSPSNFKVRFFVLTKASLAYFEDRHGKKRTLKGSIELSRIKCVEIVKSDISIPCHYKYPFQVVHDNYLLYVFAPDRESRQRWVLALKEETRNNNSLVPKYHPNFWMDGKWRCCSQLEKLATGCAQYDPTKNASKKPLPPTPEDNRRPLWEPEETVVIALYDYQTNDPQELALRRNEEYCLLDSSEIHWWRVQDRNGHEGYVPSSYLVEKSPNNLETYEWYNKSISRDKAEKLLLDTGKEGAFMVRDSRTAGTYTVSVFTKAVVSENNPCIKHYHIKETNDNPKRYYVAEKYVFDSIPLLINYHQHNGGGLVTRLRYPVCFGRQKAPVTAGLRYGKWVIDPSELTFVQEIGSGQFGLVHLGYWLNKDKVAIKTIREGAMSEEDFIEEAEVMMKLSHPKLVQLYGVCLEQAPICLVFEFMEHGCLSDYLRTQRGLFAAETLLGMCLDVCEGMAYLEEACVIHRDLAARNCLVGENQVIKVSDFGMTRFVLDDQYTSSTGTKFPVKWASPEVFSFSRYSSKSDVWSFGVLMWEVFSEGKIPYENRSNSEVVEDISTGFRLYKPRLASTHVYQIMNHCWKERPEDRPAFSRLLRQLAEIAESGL

[37] = molecular target: T36, RPS6KA4(Kin.Dom.1-N-terminal) (Homo sapiens, UniProt O75676); experiment: KINOMEscan; assay type: binding; conditions: read-out: Percent Control
T36 construct: RPS6KA4(Kin.Dom.1-N-terminal); purchased Eurofins DiscoverX KINOMEscan (scanMAX 468)
T36 sequence (O75676 1-371 limits assumed): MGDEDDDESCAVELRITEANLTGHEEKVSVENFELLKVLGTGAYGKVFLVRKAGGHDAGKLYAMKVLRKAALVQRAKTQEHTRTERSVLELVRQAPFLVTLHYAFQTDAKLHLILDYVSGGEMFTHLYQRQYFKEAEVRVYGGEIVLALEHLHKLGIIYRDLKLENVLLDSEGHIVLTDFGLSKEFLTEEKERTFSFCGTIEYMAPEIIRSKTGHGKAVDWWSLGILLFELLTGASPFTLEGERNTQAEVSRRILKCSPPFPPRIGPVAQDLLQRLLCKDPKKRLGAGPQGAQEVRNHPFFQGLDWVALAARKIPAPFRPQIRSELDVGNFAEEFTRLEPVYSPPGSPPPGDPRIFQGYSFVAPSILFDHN

[38] = molecular target: T37, BIKE (Homo sapiens, UniProt Q9NSY1); experiment: KINOMEscan; assay type: binding; conditions: read-out: Percent Control
T37 construct: purchased Eurofins DiscoverX KINOMEscan (scanMAX 468)

[39] = molecular target: T38, PIP5K2B (Homo sapiens, UniProt P78356); experiment: KINOMEscan; assay type: binding; conditions: read-out: Percent Control
T38 construct: purchased Eurofins DiscoverX KINOMEscan (scanMAX 468)
T38 sequence (P78356 whole entry): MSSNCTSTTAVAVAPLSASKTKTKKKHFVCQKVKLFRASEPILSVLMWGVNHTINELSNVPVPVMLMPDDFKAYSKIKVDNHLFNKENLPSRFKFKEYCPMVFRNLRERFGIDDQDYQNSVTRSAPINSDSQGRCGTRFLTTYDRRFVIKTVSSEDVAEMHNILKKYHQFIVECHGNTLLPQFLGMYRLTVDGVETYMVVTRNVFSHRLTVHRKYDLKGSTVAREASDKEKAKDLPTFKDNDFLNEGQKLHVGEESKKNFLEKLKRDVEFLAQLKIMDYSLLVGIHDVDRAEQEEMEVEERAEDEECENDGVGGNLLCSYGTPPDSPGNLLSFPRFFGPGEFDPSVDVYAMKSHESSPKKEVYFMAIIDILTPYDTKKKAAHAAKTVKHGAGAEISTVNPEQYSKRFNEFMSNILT

[40] = molecular target: T39, CAMK1B (Homo sapiens, UniProt Q6P2M8); experiment: KINOMEscan; assay type: binding; conditions: read-out: Percent Control
T39 construct: purchased Eurofins DiscoverX KINOMEscan (scanMAX 468)

[41] = molecular target: T40, TLK1 (Homo sapiens, UniProt Q9UKI8); experiment: KINOMEscan; assay type: binding; conditions: read-out: Percent Control
T40 construct: purchased Eurofins DiscoverX KINOMEscan (scanMAX 468)

T1 sequence (O14733 whole entry): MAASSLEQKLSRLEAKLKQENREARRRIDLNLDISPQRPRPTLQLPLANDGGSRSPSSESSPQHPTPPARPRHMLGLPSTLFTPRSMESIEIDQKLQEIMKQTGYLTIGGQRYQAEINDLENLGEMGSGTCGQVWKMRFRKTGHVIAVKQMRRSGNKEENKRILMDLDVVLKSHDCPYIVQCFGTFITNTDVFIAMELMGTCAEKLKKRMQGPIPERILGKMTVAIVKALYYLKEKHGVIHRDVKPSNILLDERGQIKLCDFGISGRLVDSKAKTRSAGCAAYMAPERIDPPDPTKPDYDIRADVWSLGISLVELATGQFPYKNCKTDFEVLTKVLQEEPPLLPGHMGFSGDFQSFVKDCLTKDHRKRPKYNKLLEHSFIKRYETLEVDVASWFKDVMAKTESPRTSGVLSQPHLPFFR

## Cc1ccc(-n2cc(COc3cccc4cnc(Nc5cccc(Cl)c5)nc34)nn2)c([N+](=O)[O-])c1 [DB18]
[1]
  remaining binding at 1 µM: 100%
[2]
  remaining binding at 1 µM: 100%
[3]
  remaining binding at 1 µM: 100%
[4]
  remaining binding at 1 µM: 100%
[5]
  remaining binding at 1 µM: 100%
[6]
  remaining binding at 1 µM: 98%
[7]
  remaining binding at 1 µM: 100%
[8]
  remaining binding at 1 µM: 80%
[9]
  remaining binding at 1 µM: 100%
[10]
  remaining binding at 1 µM: 100%
[11]
  remaining binding at 1 µM: 28%
[12]
  remaining binding at 1 µM: 100%
[13]
  remaining binding at 1 µM: 100%
[14]
  remaining binding at 1 µM: 100%
[15]
  remaining binding at 1 µM: 100%
[16]
  remaining binding at 1 µM: 97%
[17]
  remaining binding at 1 µM: 98%
[18]
  remaining binding at 1 µM: 97%
[19]
  remaining binding at 1 µM: 29%
[20]
  remaining binding at 1 µM: 97%
[21]
  remaining binding at 1 µM: 94%
[22]
  remaining binding at 1 µM: 100%
[23]
  remaining binding at 1 µM: 100%
[24]
  remaining binding at 1 µM: 96%
[25]
  remaining binding at 1 µM: 100%
[26]
  remaining binding at 1 µM: 89%
[27]
  remaining binding at 1 µM: 99%
[28]
  remaining binding at 1 µM: 100%
[29]
  remaining binding at 1 µM: 100%
[30]
  remaining binding at 1 µM: 100%
[31]
  remaining binding at 1 µM: 100%
[32]
  remaining binding at 1 µM: 95%
[33]
  IC50: 4 µM
[34]
  remaining binding at 1 µM: 100%
[35]
  remaining binding at 1 µM: 87%
[36]
  remaining binding at 1 µM: 100%
[37]
  remaining binding at 1 µM: 100%
[38]
  remaining binding at 1 µM: 99%
[39]
  remaining binding at 1 µM: 100%
[40]
  remaining binding at 1 µM: 86%
[41]
  remaining binding at 1 µM: 100%
